The values below come from patent US20190016689A1, “NOVEL FLUORINATED QUINAZOLINE DERIVATIVES AS EGFR INHIBITORS” (TRILLIUM THERAPEUTICS INC., priority 2016, published 2019).

The subject of one data set is HOP-62. In words: NCI screening panel (SRB). In kind it is cell-based. The settings on record: Homo sapiens, HOP-62 (NSCLC), 48 h; for CC50: read-out: LC50 (the source's name).
A further data set has as its system SK-OV-3. As to the kind of experiment: NCI screening panel (SRB). Particulars: Homo sapiens, SK-OV-3 (Ovarian), 48 h; for CC50: read-out: LC50 (the source's name). It counts as cell-based.
In a further data set the test system is OVCAR-5. In words: NCI screening panel (SRB). In kind it is cell-based. Particulars: Homo sapiens, OVCAR-5 (Ovarian), 48 h; for CC50: read-out: LC50 (the source's name).
For the next data set, the system named is NCI-H322M. In words: cells. The settings on record: Homo sapiens, 48 h; for CC50: read-out: LC50.
In the next data set the test system is CCRF-CEM. As to the kind of experiment: NCI screening panel (SRB). The settings on record: Homo sapiens, CCRF-CEM (Leukemia), 48 h; for CC50: read-out: LC50 (the source's name). In kind it is cell-based.
The subject of a further data set is MOLT-4. As to the kind of experiment: NCI screening panel (SRB). It counts as cell-based. The settings on record: Homo sapiens, MOLT-4 (Leukemia), 48 h; for CC50: read-out: LC50 (the source's name).
For the next data set, the target named is EGFR (G719S) (Homo sapiens, UniProt P00533, G719S). As to the kind of experiment: Kinase assays, selectivity panel (qPCR). The settings on record: read-out: % Control @ 300 nM. (In general: Quantitative PCR measures a nucleic acid by following its amplification.)
The next data set concerns the target EGFR (S752-I759del) (Homo sapiens, UniProt P00533, DEL752-759). In words: Kinase assays, selectivity panel (qPCR). The settings on record: read-out: % Control @ 300 nM.
The next data set relates to OVCAR-8. In words: NCI screening panel (SRB). It counts as cell-based. The settings on record: Homo sapiens, OVCAR-8 (Ovarian), 48 h; for CC50: read-out: LC50 (the source's name).
Another data set has as its target EGFR (Homo sapiens, UniProt P00533). As to the kind of experiment: Kinase assays, selectivity panel (qPCR). Particulars: read-out: % Control @ 300 nM.
Another data set deals with UACC-257. As to the kind of experiment: NCI screening panel (SRB). In kind it is cell-based. The settings on record: Homo sapiens, UACC-257 (Melanoma), 48 h; for CC50: read-out: LC50 (the source's name).
Another data set concerns NCI-H522. In words: NCI screening panel (SRB). In kind it is cell-based. The settings on record: Homo sapiens, NCI-H522 (NSCLC), 48 h; for CC50: read-out: LC50 (the source's name).
The test system of another data set is HOP-92. As to the kind of experiment: NCI screening panel (SRB). It counts as cell-based. The settings on record: Homo sapiens, HOP-92 (NSCLC), 48 h; for CC50: read-out: LC50 (the source's name).
The next data set concerns SK-MEL-28. As to the kind of experiment: NCI screening panel (SRB). In kind it is cell-based. The settings on record: Homo sapiens, SK-MEL-28 (Melanoma), 48 h; for CC50: read-out: LC50 (the source's name).
The target in the next data set is EGFR (T790M) (Homo sapiens, UniProt P00533, T790M). In words: Kinase assays, selectivity panel (qPCR). The settings on record: read-out: % Control @ 300 nM.
The next data set relates to U251. In words: NCI screening panel (SRB). It counts as cell-based. The settings on record: Homo sapiens, U-251, U251 (CNS), 48 h; for CC50: read-out: LC50 (the source's name).
For a further data set, the system named is HCT-15. In words: NCI screening panel (SRB). It counts as cell-based. The settings on record: Homo sapiens, HCT-15 (Colon), 48 h; for CC50: read-out: LC50 (the source's name).
The test system of a further data set is SK-MEL-5. In words: NCI screening panel (SRB). The settings on record: Homo sapiens, SK-MEL-5 (Melanoma), 48 h; for CC50: read-out: LC50 (the source's name). It counts as cell-based.
A further data set has as its target BLK (B-lymphoid TK) (Homo sapiens, UniProt P51451). In words: Kinase assays, selectivity panel (qPCR). Particulars: read-out: % Control @ 300 nM.
The next data set concerns the target ERBB4 (Homo sapiens, UniProt Q15303). In words: Kinase assays, selectivity panel (qPCR). Particulars: read-out: % Control @ 300 nM.
Another data set relates to ACHN. In words: NCI screening panel (SRB). In kind it is cell-based. The settings on record: Homo sapiens, ACHN (Renal), 48 h; for CC50: read-out: LC50 (the source's name).
The subject of the next data set is UACC-62. In words: NCI screening panel (SRB). It counts as cell-based. The settings on record: Homo sapiens; UACC-62 (Melanoma), 48 h.
Another data set concerns PC-3. As to the kind of experiment: NCI screening panel (SRB). Particulars: Homo sapiens, PC-3 (Prostate), 48 h; for CC50: read-out: LC50 (the source's name). It counts as cell-based.
Data set [1] can be described thus: Chemical stability in PBS pH 7.4. It counts as physicochemical. Particulars: 37° C. The procedure:
For PBS pH7.4: Prepare 100 mM bulk Na2HPO4 solution and 100 mM bulk NaH2PO4 solution. Place Na2HPO4 solution on a stirrer and slowly add NaH2PO4 solution until the pH is nearly 7.4 (±0.05).
The working solutions of test compound and control compound chlorambucil are prepared in DMSO at the concentration of 500 μM.
Place 2 μL of working solution of each sample in order into their proper 96-well rack. Add 198 μL of pre-incubated PBS pH 7.4 or simulated intestinal fluid into each vial of the cap-less Sample plate to achieve a final concentration of […]. The assay is performed in duplicate. Seal using a molded PTFE/Silicone plug. Then transfer the Sample plate to the Eppendorf Thermomixer Comfort plate shaker and shake at 37° C. at 1100 RPM. Take one of the glass vials at designated time points including 0, 30, 60, 120 and 240 min. For each time point, the initiation of the reaction is staggered so all time points are terminated with 1000 μL of cold quench solution (acetonitrile containing internal standards (IS, 200 nM Labetalol, 100 nM Alprazolam and 2 μM Ketoprofen) at the same time. Vortex for 1 minute. Centrifuge the samples in plate at 3,220 g for 5 minutes at 4° C. Transfer 100 μL of the supernatant to a new plate. The supernatant may be diluted with 100 μL or 200 μL water according to the LC/MS signal response and peak shape. Mix well and analyze samples using LC/MS/MS.

BLK (B-lymphoid TK), sequence (P51451 whole entry): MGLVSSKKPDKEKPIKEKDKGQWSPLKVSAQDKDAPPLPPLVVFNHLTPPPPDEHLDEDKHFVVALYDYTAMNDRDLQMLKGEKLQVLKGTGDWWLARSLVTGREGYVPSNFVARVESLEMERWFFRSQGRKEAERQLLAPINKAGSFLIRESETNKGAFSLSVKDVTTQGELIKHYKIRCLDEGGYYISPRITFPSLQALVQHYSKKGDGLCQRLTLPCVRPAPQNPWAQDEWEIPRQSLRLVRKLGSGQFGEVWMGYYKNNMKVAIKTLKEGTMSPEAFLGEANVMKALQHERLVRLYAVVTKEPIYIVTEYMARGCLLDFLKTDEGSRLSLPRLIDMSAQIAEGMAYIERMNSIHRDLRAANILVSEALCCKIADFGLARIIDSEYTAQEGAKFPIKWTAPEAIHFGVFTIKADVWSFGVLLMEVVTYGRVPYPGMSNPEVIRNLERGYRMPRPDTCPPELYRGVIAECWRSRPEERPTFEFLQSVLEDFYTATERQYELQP
ERBB4, sequence (Q15303 26-1308): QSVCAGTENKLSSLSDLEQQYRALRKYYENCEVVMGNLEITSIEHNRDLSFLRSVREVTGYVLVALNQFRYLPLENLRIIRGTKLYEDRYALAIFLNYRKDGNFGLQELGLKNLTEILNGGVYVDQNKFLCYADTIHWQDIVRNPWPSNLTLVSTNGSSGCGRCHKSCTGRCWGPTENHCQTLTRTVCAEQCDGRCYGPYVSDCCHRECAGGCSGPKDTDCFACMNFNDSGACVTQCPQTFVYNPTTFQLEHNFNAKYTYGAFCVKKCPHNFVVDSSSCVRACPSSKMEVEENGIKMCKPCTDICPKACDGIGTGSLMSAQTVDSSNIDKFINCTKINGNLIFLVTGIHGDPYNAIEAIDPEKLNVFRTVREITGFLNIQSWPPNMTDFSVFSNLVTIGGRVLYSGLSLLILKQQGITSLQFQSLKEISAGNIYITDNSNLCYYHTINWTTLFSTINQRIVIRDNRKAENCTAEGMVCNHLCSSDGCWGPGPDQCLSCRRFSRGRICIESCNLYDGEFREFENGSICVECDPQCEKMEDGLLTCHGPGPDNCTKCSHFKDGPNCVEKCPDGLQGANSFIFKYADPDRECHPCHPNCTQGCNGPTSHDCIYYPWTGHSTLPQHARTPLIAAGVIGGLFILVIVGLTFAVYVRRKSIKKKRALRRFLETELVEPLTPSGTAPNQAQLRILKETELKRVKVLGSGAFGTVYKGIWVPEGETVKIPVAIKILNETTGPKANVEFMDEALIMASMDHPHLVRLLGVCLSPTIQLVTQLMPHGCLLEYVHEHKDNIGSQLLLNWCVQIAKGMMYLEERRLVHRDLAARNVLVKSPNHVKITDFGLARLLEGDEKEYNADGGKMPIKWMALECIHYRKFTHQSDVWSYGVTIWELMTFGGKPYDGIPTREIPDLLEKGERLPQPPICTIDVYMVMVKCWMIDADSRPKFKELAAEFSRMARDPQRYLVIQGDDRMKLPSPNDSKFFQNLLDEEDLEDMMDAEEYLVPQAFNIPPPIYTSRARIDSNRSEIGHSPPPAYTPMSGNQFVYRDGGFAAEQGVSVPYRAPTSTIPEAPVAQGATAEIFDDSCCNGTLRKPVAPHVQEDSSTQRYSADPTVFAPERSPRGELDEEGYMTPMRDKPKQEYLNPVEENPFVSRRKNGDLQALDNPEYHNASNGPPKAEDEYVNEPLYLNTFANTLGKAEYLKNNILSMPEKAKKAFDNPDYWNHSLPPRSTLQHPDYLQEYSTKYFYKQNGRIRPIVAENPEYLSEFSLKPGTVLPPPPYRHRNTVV
EGFR (G719S), sequence (P00533 25-1210 G719S): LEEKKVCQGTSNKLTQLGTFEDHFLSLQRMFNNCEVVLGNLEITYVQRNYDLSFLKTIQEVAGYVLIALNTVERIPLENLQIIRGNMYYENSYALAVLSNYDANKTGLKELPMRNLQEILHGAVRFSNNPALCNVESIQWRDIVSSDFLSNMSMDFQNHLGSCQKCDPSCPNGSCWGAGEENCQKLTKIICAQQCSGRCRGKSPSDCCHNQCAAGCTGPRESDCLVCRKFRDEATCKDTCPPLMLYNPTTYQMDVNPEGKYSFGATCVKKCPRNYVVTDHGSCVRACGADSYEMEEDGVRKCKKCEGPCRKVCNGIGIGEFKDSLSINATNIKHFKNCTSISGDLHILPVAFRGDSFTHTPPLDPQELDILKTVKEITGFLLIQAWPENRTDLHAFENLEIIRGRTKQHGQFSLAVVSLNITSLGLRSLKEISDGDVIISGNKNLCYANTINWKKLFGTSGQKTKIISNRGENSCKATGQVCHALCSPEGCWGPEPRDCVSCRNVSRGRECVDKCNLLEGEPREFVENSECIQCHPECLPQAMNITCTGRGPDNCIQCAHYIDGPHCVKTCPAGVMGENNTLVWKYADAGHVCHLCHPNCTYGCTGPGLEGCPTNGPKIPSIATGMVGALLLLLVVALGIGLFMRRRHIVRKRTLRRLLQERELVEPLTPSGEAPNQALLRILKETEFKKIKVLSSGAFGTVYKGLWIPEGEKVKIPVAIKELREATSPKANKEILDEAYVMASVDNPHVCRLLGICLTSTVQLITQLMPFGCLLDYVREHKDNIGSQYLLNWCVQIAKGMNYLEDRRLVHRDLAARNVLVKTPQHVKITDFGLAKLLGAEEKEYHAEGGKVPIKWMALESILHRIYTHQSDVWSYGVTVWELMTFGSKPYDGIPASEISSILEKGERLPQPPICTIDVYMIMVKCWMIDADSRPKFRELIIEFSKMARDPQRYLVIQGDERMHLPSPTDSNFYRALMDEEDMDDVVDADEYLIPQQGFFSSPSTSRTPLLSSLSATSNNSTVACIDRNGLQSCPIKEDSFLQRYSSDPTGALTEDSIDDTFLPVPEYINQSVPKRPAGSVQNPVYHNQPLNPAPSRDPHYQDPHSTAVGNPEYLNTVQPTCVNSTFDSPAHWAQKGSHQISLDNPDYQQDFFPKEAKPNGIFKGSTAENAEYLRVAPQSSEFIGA
EGFR (S752-I759del), sequence (P00533 with tags, fused parts or gaps DEL752-759): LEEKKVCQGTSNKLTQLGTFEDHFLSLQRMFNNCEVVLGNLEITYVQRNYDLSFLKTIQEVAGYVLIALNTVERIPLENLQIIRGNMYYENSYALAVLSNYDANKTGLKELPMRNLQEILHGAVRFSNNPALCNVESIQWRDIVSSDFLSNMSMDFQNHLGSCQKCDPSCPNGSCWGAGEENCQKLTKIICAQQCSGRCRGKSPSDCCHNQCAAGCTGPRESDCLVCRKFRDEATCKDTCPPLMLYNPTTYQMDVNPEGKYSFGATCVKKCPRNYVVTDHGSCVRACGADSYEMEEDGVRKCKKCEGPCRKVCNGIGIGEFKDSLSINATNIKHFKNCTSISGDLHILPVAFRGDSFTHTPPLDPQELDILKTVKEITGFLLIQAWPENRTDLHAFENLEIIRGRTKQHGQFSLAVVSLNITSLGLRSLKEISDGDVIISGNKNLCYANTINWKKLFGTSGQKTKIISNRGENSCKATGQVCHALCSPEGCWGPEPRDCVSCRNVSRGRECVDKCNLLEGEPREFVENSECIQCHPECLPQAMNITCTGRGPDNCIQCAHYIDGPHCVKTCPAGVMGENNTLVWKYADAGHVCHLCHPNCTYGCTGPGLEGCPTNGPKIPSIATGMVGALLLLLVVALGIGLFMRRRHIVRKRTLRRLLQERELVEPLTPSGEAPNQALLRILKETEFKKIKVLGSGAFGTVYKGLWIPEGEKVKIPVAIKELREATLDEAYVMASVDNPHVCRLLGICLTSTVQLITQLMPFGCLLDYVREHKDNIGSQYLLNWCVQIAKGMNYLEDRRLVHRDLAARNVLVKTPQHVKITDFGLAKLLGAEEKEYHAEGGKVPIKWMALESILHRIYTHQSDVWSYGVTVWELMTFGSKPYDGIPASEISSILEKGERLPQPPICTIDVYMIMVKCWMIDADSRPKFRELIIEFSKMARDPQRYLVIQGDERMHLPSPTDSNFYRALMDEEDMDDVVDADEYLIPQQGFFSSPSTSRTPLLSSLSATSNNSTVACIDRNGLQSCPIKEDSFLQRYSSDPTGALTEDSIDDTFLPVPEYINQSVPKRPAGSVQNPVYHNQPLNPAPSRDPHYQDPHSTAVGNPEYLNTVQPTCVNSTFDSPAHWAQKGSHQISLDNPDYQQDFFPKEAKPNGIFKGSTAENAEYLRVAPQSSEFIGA

Consider `CN(C)C/C=C/C(=O)Nc1cc2c(Nc3ccc(F)c(Cl)c3F)ncnc2cc1OCCOC(F)F.O=C(O)/C=C\C(=O)O.O=C(O)/C=C\C(=O)O` [Example I-9-MA, (E)-N-[4-(3-chloro-2,4-difluoro-anilino)-7-[2-(difluoromethoxy)ethoxy]quinazolin-6-yl]-4-(dimethylamino)but-2-enamide di-maleic acid salt], for which the GI50 in the data set with HOP-62 is 1.35 µM; with SK-OV-3 it was below 0.01 µM; in the data set on OVCAR-5 it was 0.141 µM; in the data set with NCI-H322M, below 0.01 µM; in the data set on CCRF-CEM, 2.47 µM; with MOLT-4 it was 0.849 µM. Besides, the GI50 was 1.09 µM in the data set on OVCAR-8; 2.18 µM in the data set on UACC-257; below 0.01 µM in the data set on NCI-H522; 0.185 µM in the data set on HOP-92; 2.29 µM in the data set with SK-MEL-28; 2.17 µM in the data set with U251. Further, the 50% growth inhibitory concentration (GI50) is 0.675 µM in the data set on HCT-15; 1.65 µM in the data set with SK-MEL-5; below 0.01 µM in the data set on ACHN; 1.49 µM in the data set with UACC-62; 2.55 µM with PC-3. In addition, the CC50 in the data set with HOP-62 was 41.5 µM; in the data set on SK-OV-3, 27.7 µM; in the data set on OVCAR-5, 47.9 µM; with NCI-H322M, 28.2 µM; in the data set with CCRF-CEM, above 100 µM; with MOLT-4, 47.5 µM. For the same compound, the CC50 in the data set on OVCAR-8 was determined as 32.7 µM; in the data set with UACC-257, 34 µM; with NCI-H522, 9.17 µM; in the data set on HOP-92 it was 31.2 µM; with SK-MEL-28 it was 36.2 µM; in the data set with U251, 29.6 µM. Also, the CC50 in the data set with HCT-15 was determined as 9.46 µM; with SK-MEL-5 it was 7.39 µM; in the data set on ACHN it was 6.01 µM; in the data set on PC-3 it was 58.5 µM. In addition, the remaining activity at 0.3 µM worked out at 0.15% on EGFR (G719S); 0.5% on EGFR (S752-I759del); 0.7% at EGFR; 0.1% on EGFR (T790M); 0.5% at BLK (B-lymphoid TK); 1.8% on ERBB4. This compound yielded an LC50 in the data set with UACC-62 of 9.95 µM.

As for `O=C(/C=C/CN1CCCCC1)Nc1cc2c(Nc3ccc(F)c(Cl)c3F)ncnc2cc1OCCOC(F)F.O=C(O)/C=C\C(=O)O.O=C(O)/C=C\C(=O)O` [Example I-10-MA, (E)-N-[4-(3-chloro-2,4-difluoro-anilino)-7-[2-(difluoromethoxy)ethoxy]quinazolin-6-yl]-4-(1-piperidyl)but-2-enamide di-maleic acid salt], the GI50 with HOP-62 is 1.62 µM; in the data set on SK-OV-3, 0.0405 µM; in the data set with OVCAR-5, 0.776 µM; with NCI-H322M, below 0.01 µM; in the data set on CCRF-CEM, 2.27 µM; in the data set on MOLT-4 it was 1.12 µM. Moreover, the GI50 with OVCAR-8 amounted to 1.35 µM; in the data set on UACC-257, 1.74 µM; in the data set with NCI-H522, 0.0559 µM; in the data set on HOP-92, 0.151 µM; in the data set on SK-MEL-28 it was 2.49 µM; in the data set on U251 it was 2.17 µM. For the same compound, the GI50 with HCT-15 is 1.34 µM; with SK-MEL-5 it was 1.63 µM; with ACHN it was below 0.01 µM; in the data set on UACC-62 it was 1.79 µM; with PC-3 it was 2.38 µM. The CC50 in the data set with HOP-62 is 39.5 µM; with SK-OV-3, 36 µM; in the data set with OVCAR-5 it was 67.1 µM; in the data set with NCI-H322M, 30.3 µM; in the data set on CCRF-CEM, above 100 µM; with MOLT-4, 98.4 µM. Moreover, the CC50 in the data set on OVCAR-8 was above 100 µM; with UACC-257, 24.1 µM; with NCI-H522, 7.8 µM; in the data set on HOP-92, 21.1 µM; with SK-MEL-28, 36.5 µM; in the data set on U251, 40.7 µM. Further, the CC50 worked out at 23 µM with HCT-15, 6.25 µM in the data set on SK-MEL-5, 15 µM with ACHN and 51 µM in the data set on PC-3. Moreover, the remaining activity at 0.3 µM on EGFR (G719S) came out at 0%; on EGFR (S752-I759del), 0%; at EGFR it was 2.7%; on EGFR (T790M), 0.75%; on BLK (B-lymphoid TK), 0.3%; at ERBB4 it was 3.2%. Also, in the data set on UACC-62, the 50% lethal concentration (LC50) is 20.5 µM.

For `CN(C)C/C=C/C(=O)Nc1cc2c(Nc3cccc(Cl)c3F)ncnc2cc1OCCOC(F)F.O=C(O)/C=C\C(=O)O` [Example I-5-MA, (E)-N-[4-(3-chloro-2-fluoro-anilino)-7-[2-(difluoromethoxy)ethoxy]quinazolin-6-yl]-4-(dimethylamino)but-2-enamide dimaleic acid salt], the “Remaining Percentage (%) in PBS at pH 7.4” value stood at 94.70% in data set [1] (120 min) and 91.17% in data set [1] (240 min).

Consider `CN(C)C/C=C/C(=O)Nc1cc2c(Nc3ccc(F)c(Cl)c3)ncnc2cc1O[C@H]1CCOC1` [Afatinib, reference compound], for which the “Remaining Percentage (%) in PBS at pH 7.4” value in data set [1] (120 min) came out at 101.12%; in data set [1] (240 min), 105.37%.

The term GI50 denotes the concentration at which growth is held to half of that of the control. Low values mean more potent growth inhibition, high ones less potent growth inhibition. One may read the LC50 as the concentration lethal to half of the exposed cells or organisms.
